This note sets out measurements from the supplement of paper PMC10307832.

Assay in all cases: relative viability (nuclei count vs DMSO), 5 days (fraction); higher = more cells survive
Compound in assay [1]: C1CC1C(=O)NC2=NNC3=C2C=CC(=C3)C4=CC(=CC=C4)C(=O)NC5CC5 [XMD13-2] + Cc1nc(NC(=O)N2CCC[C@H]2C(N)=O)sc1-c1ccnc(C(C)(C)C(F)(F)F)c1 [Alpelisib] (partner 2 µM)
In short, it runs like this: (§1)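 Five library-drug doses in √10 steps were combined with a fixed anchor-drug dose, or a single drug was given alone, by pin tool to lung cancer cell lines in 1536-well plates the day after seeding. Nuclei were stained and counted after 5 days. Relative viability is the nuclei count in treated wells over that in vehicle wells, taken as the median of duplicate plates.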

Compound in assay [2]: C1CC1C(=O)NC2=NNC3=C2C=CC(=C3)C4=CC(=CC=C4)C(=O)NC5CC5 [XMD13-2] + O=C(c1cc(Cc2n[nH]c(=O)c3ccccc23)ccc1F)N1CCN(C(=O)C2CC2)CC1 [Olaparib] (partner 8 µM)
In short, it runs like this:
as §1

Compound in assay [3]: Cc1ccc(C(=O)Nc2cccc(C(F)(F)F)c2)cc1Nc1cncc(C(N)=O)c1 [ALW-II-49-7] + CC(C)C[C@H](NC(=O)[C@H](Cc1ccccc1)NC(=O)c1cnccn1)B(O)O [Bortezomib] (partner 0.002 µM)
An outline of the steps: as §1

Compound in assay [4]: Cc1nc(Nc2ncc(C(=O)Nc3c(C)cccc3Cl)s2)cc(N2CCN(CCO)CC2)n1 [Dasatinib] + Nc1nc2[nH]cc(CCc3ccc(C(=O)N[C@@H](CCC(=O)O)C(=O)O)cc3)c2c(=O)[nH]1 [Pemetrexed] (partner 0.2 µM)
In short, it runs like this:
as §1

Take PC-14: the relative viability in assay [1] (first compound 0.05 µM) was determined as 1.01; in assay [1] (first compound 0.1581 µM), 0.936; in assay [1] (first compound 0.5 µM), 1.01; in assay [1] (first compound 1.581 µM), 0.931; in assay [1] (first compound 5 µM) it was 1.11; in assay [2] (first compound 0.05 µM) it was 0.299. Further, the relative viability in assay [2] (first compound 0.1581 µM) was found to be 0.259; in assay [2] (first compound 0.5 µM) it was 0.266; in assay [2] (first compound 1.581 µM), 0.271; in assay [2] (first compound 5 µM), 0.467; in assay [3] (first compound 0.08 µM) it was 0.88; in assay [3] (first compound 0.253 µM) it was 0.872. Further, the relative viability in assay [3] (first compound 0.8 µM) was determined as 0.83; in assay [3] (first compound 2.53 µM), 0.758; in assay [3] (first compound 8 µM), 0.857; in assay [4] (first compound 0.005 µM), 0.146; in assay [4] (first compound 0.01581 µM) it was 0.121; in assay [4] (first compound 0.05 µM), 0.108. The figures for the relative viability in assay [4] (first compound 0.1581 µM) and in assay [4] (first compound 0.5 µM) were 0.119 and 0.124, respectively.

On to RERF-LC-KJ, for which the relative viability was determined as 0.776 in assay [1] (first compound 0.05 µM); 0.902 in assay [1] (first compound 0.1581 µM); 0.842 in assay [1] (first compound 0.5 µM); 0.641 in assay [1] (first compound 1.581 µM); 0.91 in assay [1] (first compound 5 µM); 0.971 in assay [2] (first compound 0.05 µM). Besides, the relative viability in assay [2] (first compound 0.1581 µM) is 0.917; in assay [2] (first compound 0.5 µM) it was 0.928; in assay [2] (first compound 1.581 µM), 0.983; in assay [2] (first compound 5 µM), 0.985; in assay [3] (first compound 0.08 µM), 0.861; in assay [3] (first compound 0.253 µM), 1.36. The relative viability is 1.06 in assay [3] (first compound 0.8 µM); 0.813 in assay [3] (first compound 2.53 µM); 1.14 in assay [3] (first compound 8 µM); 0.53 in assay [4] (first compound 0.005 µM); 0.466 in assay [4] (first compound 0.01581 µM); 0.405 in assay [4] (first compound 0.05 µM). Also, the relative viability in assay [4] (first compound 0.1581 µM) was 0.471; in assay [4] (first compound 0.5 µM) it was 0.457.

As for SK-LU-1, the relative viability in assay [1] (first compound 0.05 µM) worked out at 1.3; in assay [1] (first compound 0.1581 µM), 1.09; in assay [1] (first compound 0.5 µM), 1.27; in assay [1] (first compound 1.581 µM), 0.945; in assay [1] (first compound 5 µM) it was 0.6; in assay [2] (first compound 0.05 µM), 0.499. Also, the relative viability in assay [2] (first compound 0.1581 µM) amounted to 0.444; in assay [2] (first compound 0.5 µM) it was 0.514; in assay [2] (first compound 1.581 µM) it was 0.444; in assay [2] (first compound 5 µM), 0.422; in assay [3] (first compound 0.08 µM), 0.741; in assay [3] (first compound 0.253 µM) it was 1.25. The relative viability worked out at 1.17 in assay [3] (first compound 0.8 µM); 1.06 in assay [3] (first compound 2.53 µM); 0.662 in assay [3] (first compound 8 µM); 0.864 in assay [4] (first compound 0.005 µM); 0.617 in assay [4] (first compound 0.01581 µM); 0.467 in assay [4] (first compound 0.05 µM). For the same cell line, the relative viability came out at 0.306 in assay [4] (first compound 0.1581 µM) and 0.282 in assay [4] (first compound 0.5 µM).

For SW 1573, the relative viability in assay [1] (first compound 0.05 µM) turned out to be 1.03; in assay [1] (first compound 0.1581 µM), 0.711; in assay [1] (first compound 0.5 µM), 1.01; in assay [1] (first compound 1.581 µM), 0.676; in assay [1] (first compound 5 µM), 0.666; in assay [2] (first compound 0.05 µM), 0.66. Further, the relative viability was 0.479 in assay [2] (first compound 0.1581 µM); 0.497 in assay [2] (first compound 0.5 µM); 0.395 in assay [2] (first compound 1.581 µM); 0.287 in assay [2] (first compound 5 µM); 1.01 in assay [3] (first compound 0.08 µM); 0.983 in assay [3] (first compound 0.253 µM). The relative viability came out at 1.14 in assay [3] (first compound 0.8 µM); 1.01 in assay [3] (first compound 2.53 µM); 0.959 in assay [3] (first compound 8 µM); 0.889 in assay [4] (first compound 0.005 µM); 0.742 in assay [4] (first compound 0.05 µM); 0.607 in assay [4] (first compound 0.1581 µM). In addition, in assay [4] (first compound 0.5 µM), the relative viability came out at 0.548.
